What all share (assay): PamChip tyrosine kinase microarray
Holding throughout (format): biochemical
Settings in all cases: 0.1 µM, HL60 lysate

The target in assay [1] is T1, CTK (P42679) (Homo sapiens, UniProt P42679).
T1 construct: purchased PamGene (PamChip PTK array, Upstream Kinase Analysis)
T1 sequence (P42679 1-507): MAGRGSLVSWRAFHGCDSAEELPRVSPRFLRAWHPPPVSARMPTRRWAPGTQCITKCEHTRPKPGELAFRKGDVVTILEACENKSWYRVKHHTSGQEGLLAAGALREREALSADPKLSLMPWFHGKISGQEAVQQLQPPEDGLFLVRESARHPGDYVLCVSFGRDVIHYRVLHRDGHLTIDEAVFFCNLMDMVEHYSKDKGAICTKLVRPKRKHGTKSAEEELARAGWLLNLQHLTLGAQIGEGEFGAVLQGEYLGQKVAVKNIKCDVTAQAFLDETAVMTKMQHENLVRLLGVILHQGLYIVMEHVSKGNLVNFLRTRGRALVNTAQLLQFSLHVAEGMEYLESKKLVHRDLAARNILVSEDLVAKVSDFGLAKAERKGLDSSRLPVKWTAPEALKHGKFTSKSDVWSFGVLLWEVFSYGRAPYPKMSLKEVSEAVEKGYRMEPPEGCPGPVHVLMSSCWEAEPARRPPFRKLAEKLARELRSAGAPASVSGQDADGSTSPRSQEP
An outline of the steps:
(§1)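 HL60 (AML) cell lysate was spiked with compound at 0.001, 0.01, 0.1, 1, 10 and 50 µM, or 2% v/v DMSO as control, then profiled in technical replicates on a tyrosine kinase peptide array of 196 phosphosites. Kinase activity was inferred from peptide-set changes using an upstream kinase tool.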

For assay [2], the target named is T2, FGFR1 (P11362) (Homo sapiens, UniProt P11362).
T2 construct: purchased PamGene (PamChip PTK array, Upstream Kinase Analysis)
In short, it runs like this:
as §1

For assay [3], the target named is T3, Lck (P06239) (Homo sapiens, UniProt P06239).
T3 construct: purchased PamGene (PamChip PTK array, Upstream Kinase Analysis)
An outline of the steps:
as §1

Assay [4] has as its target T4, Mer (Q12866) (Homo sapiens, UniProt Q12866).
T4 construct: purchased PamGene (PamChip PTK array, Upstream Kinase Analysis)
T4 sequence (Q12866 21-999): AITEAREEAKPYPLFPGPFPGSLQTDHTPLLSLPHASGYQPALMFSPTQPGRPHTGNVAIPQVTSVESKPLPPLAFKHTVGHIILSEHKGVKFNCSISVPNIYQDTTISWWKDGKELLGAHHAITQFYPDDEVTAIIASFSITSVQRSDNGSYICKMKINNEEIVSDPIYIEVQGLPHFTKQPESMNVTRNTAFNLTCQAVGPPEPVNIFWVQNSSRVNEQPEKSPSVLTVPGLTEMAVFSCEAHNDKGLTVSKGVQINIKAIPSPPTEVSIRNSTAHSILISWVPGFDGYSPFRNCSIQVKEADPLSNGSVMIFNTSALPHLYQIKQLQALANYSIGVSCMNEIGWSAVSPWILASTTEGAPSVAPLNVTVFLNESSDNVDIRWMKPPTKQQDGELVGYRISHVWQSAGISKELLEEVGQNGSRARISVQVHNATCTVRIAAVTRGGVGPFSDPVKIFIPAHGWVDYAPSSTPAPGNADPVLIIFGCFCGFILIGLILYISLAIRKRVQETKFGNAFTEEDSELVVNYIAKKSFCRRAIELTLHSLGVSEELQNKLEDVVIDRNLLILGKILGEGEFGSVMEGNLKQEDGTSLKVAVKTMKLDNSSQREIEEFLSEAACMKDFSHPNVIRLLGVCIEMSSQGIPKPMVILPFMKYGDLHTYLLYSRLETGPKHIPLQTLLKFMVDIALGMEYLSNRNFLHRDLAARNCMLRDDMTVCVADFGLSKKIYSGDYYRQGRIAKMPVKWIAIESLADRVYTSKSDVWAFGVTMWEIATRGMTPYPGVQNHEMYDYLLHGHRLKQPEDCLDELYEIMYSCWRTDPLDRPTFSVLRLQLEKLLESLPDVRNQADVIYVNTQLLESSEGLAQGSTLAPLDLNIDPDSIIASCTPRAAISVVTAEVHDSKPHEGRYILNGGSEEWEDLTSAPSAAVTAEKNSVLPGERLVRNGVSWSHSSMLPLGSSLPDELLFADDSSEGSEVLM
An outline of the steps: as §1

The target in assay [5] is T5, SRM (Q9H3Y6) (Homo sapiens, UniProt Q9H3Y6).
T5 construct: purchased PamGene (PamChip PTK array, Upstream Kinase Analysis)
In short, it runs like this: as §1

SMILES strings stand for the structures. “And” between values parts separate entries of the source, which are not always exact repeats. Equal entries are not always repeated.

T3 sequence (P06239 whole entry): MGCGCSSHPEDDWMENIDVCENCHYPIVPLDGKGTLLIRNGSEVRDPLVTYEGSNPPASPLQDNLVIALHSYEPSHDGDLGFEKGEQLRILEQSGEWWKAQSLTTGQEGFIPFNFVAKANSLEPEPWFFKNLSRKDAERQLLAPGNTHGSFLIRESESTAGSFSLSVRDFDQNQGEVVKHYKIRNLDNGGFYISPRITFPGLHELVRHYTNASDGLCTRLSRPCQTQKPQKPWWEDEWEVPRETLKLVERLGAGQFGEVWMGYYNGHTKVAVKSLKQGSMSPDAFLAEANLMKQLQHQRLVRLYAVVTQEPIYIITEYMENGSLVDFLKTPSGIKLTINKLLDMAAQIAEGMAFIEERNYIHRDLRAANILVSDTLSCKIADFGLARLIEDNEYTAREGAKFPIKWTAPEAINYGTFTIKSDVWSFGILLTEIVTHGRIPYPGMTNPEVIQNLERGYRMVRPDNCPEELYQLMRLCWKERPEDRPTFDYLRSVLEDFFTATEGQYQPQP
T5 sequence (Q9H3Y6 whole entry): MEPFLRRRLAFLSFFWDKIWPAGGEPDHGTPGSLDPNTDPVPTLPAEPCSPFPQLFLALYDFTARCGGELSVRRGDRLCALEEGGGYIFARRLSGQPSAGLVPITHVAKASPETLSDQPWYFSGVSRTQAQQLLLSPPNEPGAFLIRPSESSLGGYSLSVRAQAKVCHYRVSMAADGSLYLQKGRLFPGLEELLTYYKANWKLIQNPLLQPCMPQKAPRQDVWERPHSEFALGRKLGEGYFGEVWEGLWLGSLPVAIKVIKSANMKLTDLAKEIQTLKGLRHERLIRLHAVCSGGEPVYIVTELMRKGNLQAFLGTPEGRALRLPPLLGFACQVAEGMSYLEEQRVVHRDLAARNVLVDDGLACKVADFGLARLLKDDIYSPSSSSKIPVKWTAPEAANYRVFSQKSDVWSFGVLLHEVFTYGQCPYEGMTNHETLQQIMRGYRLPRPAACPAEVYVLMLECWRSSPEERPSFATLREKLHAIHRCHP
T2 sequence (P11362 22-822): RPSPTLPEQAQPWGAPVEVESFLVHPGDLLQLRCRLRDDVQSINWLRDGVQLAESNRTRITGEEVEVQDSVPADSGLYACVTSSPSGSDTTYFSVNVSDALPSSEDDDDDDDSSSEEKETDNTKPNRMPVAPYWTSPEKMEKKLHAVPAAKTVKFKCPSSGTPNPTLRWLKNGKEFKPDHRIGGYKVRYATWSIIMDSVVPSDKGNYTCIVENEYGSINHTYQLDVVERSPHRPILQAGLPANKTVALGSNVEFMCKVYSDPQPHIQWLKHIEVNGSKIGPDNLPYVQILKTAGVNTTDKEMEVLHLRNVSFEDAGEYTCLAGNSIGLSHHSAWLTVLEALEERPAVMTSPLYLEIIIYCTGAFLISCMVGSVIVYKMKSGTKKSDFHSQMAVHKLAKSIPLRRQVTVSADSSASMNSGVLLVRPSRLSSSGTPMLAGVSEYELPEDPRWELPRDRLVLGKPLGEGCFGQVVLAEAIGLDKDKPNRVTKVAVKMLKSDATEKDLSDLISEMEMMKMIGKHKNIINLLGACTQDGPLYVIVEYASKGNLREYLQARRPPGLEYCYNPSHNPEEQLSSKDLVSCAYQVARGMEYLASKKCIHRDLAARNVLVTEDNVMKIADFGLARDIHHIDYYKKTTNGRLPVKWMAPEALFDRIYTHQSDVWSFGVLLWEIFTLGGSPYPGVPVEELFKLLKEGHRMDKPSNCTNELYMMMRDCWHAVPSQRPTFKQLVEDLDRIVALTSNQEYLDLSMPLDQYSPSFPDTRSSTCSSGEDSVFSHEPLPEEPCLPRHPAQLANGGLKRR

On to `COc1ccc(/C=C2\N=C(C)N(c3ccc(CC(=O)NCc4ccccc4)cc3)C2=O)cc1` [Compound 4c, (Z)-N-Benzyl-2-(4-(4-(4-methoxybenzylidene)-2-methyl-5-oxo-4,5-dihydro-1H-imidazol-1-yl)phenyl)acetamide], for which the “Mean Final score (Kinase score)” value in assay [1] is 2.298; in assay [2], 1.92; in assay [3] (listed as KIM-161), 2.76 and 2.758; in assay [4] it was 2.544; in assay [5] (listed as KIM-161) it was 4.1 and 4.097. Further, the figures for the “Mean Kinase Statistic” value in assay [1], in assay [2] and in assay [4] were -1.147, -0.994 and -1.224, respectively. Further, the “Mean Significance Score” value stood at 2.048 in assay [1]; 1.619 in assay [2]; 2.048 in assay [3]; 2.048 in assay [4]; 2.048 in assay [5]. For the same compound, the “Mean Specificity Score” value in assay [1] is recorded as 0.2322; in assay [2], 0.1511; in assay [3] it was 0.6669; in assay [4], 0.533; in assay [5], 1.961.

The values above are taken from paper PMC8766756, “Insights on Cancer Cell Inhibition, Subcellular Activities, and Kinase Profile of Phenylacetamides Pending 1H-Imidazol-5-One Variants” (Frontiers in Pharmacology, 2022).
